The target of the test is T1, 5-LO (Homo sapiens, UniProt P09917).
T1 construct: effects of a test compound against 5-LO and also cyclooxygenase in the presence of blood cells and proteins; endogenous in cells; host or cells: blood cells in heparinised human blood challenged with calcium ionophore A23187
T1 sequence (P09917 1-674): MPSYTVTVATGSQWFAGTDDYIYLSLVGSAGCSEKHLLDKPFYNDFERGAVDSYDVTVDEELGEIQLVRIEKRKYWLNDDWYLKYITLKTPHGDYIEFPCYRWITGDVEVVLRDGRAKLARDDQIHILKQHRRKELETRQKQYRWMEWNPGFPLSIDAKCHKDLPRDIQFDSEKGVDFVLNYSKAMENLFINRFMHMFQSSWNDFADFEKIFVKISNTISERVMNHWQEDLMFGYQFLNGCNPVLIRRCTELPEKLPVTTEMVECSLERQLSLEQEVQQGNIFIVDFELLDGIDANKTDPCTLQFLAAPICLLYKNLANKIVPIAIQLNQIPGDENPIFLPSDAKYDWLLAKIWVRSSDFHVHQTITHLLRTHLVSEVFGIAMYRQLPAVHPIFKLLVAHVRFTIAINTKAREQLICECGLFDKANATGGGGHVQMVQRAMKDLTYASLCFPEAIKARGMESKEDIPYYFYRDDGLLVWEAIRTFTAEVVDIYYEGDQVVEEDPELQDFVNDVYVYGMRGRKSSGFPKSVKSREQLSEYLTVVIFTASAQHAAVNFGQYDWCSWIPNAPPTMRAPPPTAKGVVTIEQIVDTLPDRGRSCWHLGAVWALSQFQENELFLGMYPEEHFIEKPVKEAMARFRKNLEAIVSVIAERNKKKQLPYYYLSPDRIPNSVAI
The experiment in a line: Test a) in vitro inhibition of LTB4 production in A23187-challenged heparinised human blood (radioimmunoassay). The test is classed as cell-based. The settings on record: calcium ionophore A23187 challenge. The procedure:
a) An in vitro assay system involving incubating a test compound with heparinised human blood, prior to challenge with the calcium ionophore A23187 and then indirectly measuring the inhibitory effects on 5-LO by assaying the amount of LTB4 using specific radioimmunoassays described by Carey and Forder (F. Carey and R. A. Forder, Prostaglandins, Leukotrienes Med., 1986, 22, 57; Prostaglandins, 198, 28, 666; Brit. J. Pharmacol. 1985, 84, 34P) which involve the use of a protein-LTB4 conjugate produced using the procedure of Young et alia (Prostaglandins, 1983, 26(4), 605-613). The effects of a test compound on the enzyme cyclooxygenase (which is involved in the alternative metabolic pathway for arachidonic acid and gives rise to prostaglandins, thromboxanes and related metabolites) may be measured at the same time using the specific radioimmunoassay for thromboxane B2 (TxB2) described by Carey and Forder (see above). This test provides an indication of the effects of a test compound against 5-LO and also cyclooxygenase in the presence of blood cells and proteins. It permits the selectivity of the inhibitory effect on 5-LO or cyclooxygenase to be assessed.
In the case of `C=CCC(C#N)(CC=C)c1cccc(OCc2ccc3c(ccc(=O)n3C)c2)c1` [2,2-diallyl-2-[3-(1-methyl-2-oxo-1,2-dihydroquinolin-6-ylmethoxy)phenyl]acetonitrile], the IC50 (commonly the concentration at which inhibition is half-maximal) was found to be 50 nM. The result for `CCC(C#N)(CC)c1cccc(OCc2ccc3c(ccc(=O)n3C)c2)c1` [2-ethyl-2-[3-(1-methyl-2-oxo-1,2-dihydroquinolin-6-ylmethoxy)phenyl]butyronitrile] reads 500 nM; that for `CCC(C)(C#N)c1cccc(OCc2ccc3c(ccc(=O)n3C)c2)c1` (stereo not shown) [2-methyl-2-[3-(1-methyl-2-oxo-1,2-dihydroquinolin-6-ylmethoxy)phenyl]butyronitrile], 80 nM.

`CCC(CC)(C(C)=O)c1cccc(OCc2ccc3c(ccc(=O)n3C)c2)c1` [3-ethyl-3-[3-(1-methyl-2-oxo-1,2-dihydroquinolin-6-ylmethoxy)phenyl]pentan-2-one]: the IC50 was found to be 150 nM.

The values are drawn from US5519022A, “α, α dialkylbenzyl derivatives” (Imperial Chemical Industries Plc, priority 1991, dated 1996).
